{"source": "patent US11334695B2", "about": "“Antiperspirant and deodorant compositions comprising malodor reduction compositions” (The Procter & Gamble Company, priority 2014, dated 2022)", "assay": "Blocker Index (BI), expert grader ranking of malodor strength of isovaleric acid swatch treated with test material", "description": "Making Swatches Treated with the Test Material A clean swatch is treated with 13 μL of a known concentration of a test sample material resulting in an about 1 cm of the solution on the clean swatch. Just like the reference swatches, the test sample material swatch is dried in a vented hood for 30 minutes and then wrapped in aluminum foil to prevent contamination. The test material swatches and the FFI reference swatches should be made within 2 hrs of each other. The test material swatch must be used within 0.5 to 12 hours and discarded after 12 hours. Assigning the FFI to the Test Material At least two perfumers/expert graders are used to assign an FFI grade to a test sample. The perfumer/expert grader smells the test sample swatch by holding that swatch 1 inch from their nose with their nose centered over the area where the test sample was pipetted on to the fabric and then assigns the test sample an FFI grade using the FFI reference scale anchor swatches as references. In cases where the test sample material is graded greater than 3, the test material is not a blocker material or the concentration of the material needs to be lowered and reevaluated to determine if a lower level has a malodor blocker functionality. Method for Assigning the BI to Test Sample The first step in the method for assigning a BI to a test sample material on the BI reference scale is to create the BI reference swatches. […] Fabric swatches for this test are white knit polycotton (4 inch×4 inch) swatches from EMC ordered as PC 50/50. The supplier is instructed to strip the swatches first, stripping involves washing twice with a fragrance-free detergent and rinsing three times. […] The BI scale contains one clean swatch with no malodor applied. […] These solutions are pipetted to the middle of the swatches. […] After drying for 30 minutes in a vented hood, the swatches are wrapped in aluminum foil to prevent odor contamination to the treated swatch. A clean untreated swatch is also included as the lowest anchor point of reference for malodor strength on the BI scale. The BI reference scale swatches should be used within 0.5 to 12 hours and discarded after 12 hours. The swatches are used as scale anchor points when graders evaluate a test sample(s) and are assigned a Blocker Index (BI) as show in Table 12. […] The perfumer/expert grader is asked to rank order swatches according to a scale between 0 and 3.\nThe reference swatches represent the 0, 1, 2, and 3 BIs on the BI reference scale, Table 12. The expert grader should familiarizes him/herself with the strength of the odor on the BI reference swatches by sniffing each one starting at 0 (the lowest odor strength) and ending at 3 (the highest odor strength). This should be done prior to evaluating the swatch treated with the test material.\nMaking the Malodorous Swatch and Treating it with a Test Material To evaluate the BI, the test material is applied to a malodorous swatch to determine how well the test material blocks the malodor. […] After drying the malodorous swatch a known concentration of test material solution, between 1 ppm and 100 ppm is pipetted onto the malodorous swatch. […] It is sometimes necessary to evaluate several levels of the test material between about 1 and about 100 ppm to determine the BI. Assigning the BI to the Test Material At least two perfumers/expert graders are used to assign the BI to the test sample. […] The test sample swatch is assigned a BI at or between numbers on the BI in table.", "key": {"[1]": {"conditions": "test material at 10 ppm on isovaleric acid swatch"}, "[2]": {"conditions": "test material at 50 ppm on isovaleric acid swatch"}, "[3]": {"conditions": "test material Conc 10 ppm on swatch with 20 μL 0.08% isovaleric acid, scale 0 to 3"}, "[4]": {"conditions": "test material Conc 50 ppm on swatch with 20 μL 0.08% isovaleric acid, scale 0 to 3"}}, "data": [{"smiles": "CC1(C)CCc2ccc(CCC=O)cc21", "values": [{"measurement": "BI", "setting": "[1]", "result": 1.5}, {"measurement": "BI", "setting": "[2]", "result": 2.7}]}, {"smiles": "CC1CCC2(C(C)C)CC(C)OC2C1", "note": "(stereo not shown)", "values": [{"measurement": "BI", "setting": "[1]", "result": 2.0}, {"measurement": "BI", "setting": "[2]", "result": 2.2}]}, {"smiles": "CCC(=O)OC1CC2C3C=CCC3C1C2(C)C", "note": "(stereo not shown)", "values": [{"measurement": "BI", "setting": "[1]", "result": 1.5}, {"measurement": "BI", "setting": "[2]", "result": 2.2}]}, {"smiles": "O=C1CCC2CCCCC2O1", "note": "(stereo not shown) [3,4,4a,5,6,7,8,8a-octahydrochromen-2-one]", "values": [{"measurement": "BI", "setting": "[3]", "result": 2.0}, {"measurement": "BI", "setting": "[4]", "result": 2.0}]}, {"smiles": "CC(C)(C)C1CCCCC1", "note": "[4-tert-butyl cyclohexane]", "values": [{"measurement": "BI", "setting": "[3]", "result": 2.0}, {"measurement": "BI", "setting": "[4]", "result": 2.0}]}, {"smiles": "CCCCCCCCCCCCCCCC(=O)OC", "note": "[Material 109]", "values": [{"measurement": "BI", "setting": "[3]", "result": 2.0}]}, {"smiles": "CCCCCCCCCCCCO", "note": "[Material 174]", "values": [{"measurement": "BI", "setting": "[4]", "result": 2.3}]}, {"smiles": "CC(=O)OCCCCCCC(C)C", "note": "[Material 204]", "values": [{"measurement": "BI", "setting": "[3]", "result": 2.0}, {"measurement": "BI", "setting": "[4]", "result": 2.7}]}, {"smiles": "CC1(C)CCc2ccc(CCC=O)cc21", "note": "[Material 261]", "values": [{"measurement": "BI", "setting": "[3]", "result": 1.8}, {"measurement": "BI", "setting": "[4]", "result": 1.3}]}, {"smiles": "CC(=O)OC1CC2CC1C1CC=CC21", "note": "(stereo not shown) [Material 281]", "values": [{"measurement": "BI", "setting": "[3]", "result": 2.0}, {"measurement": "BI", "setting": "[4]", "result": 2.0}]}, {"smiles": "CCCCCCCCCCCC(=O)OCC", "note": "[Material 391]", "values": [{"measurement": "BI", "setting": "[4]", "result": 2.2}]}, {"smiles": "C=CC(C)=CCC=C(C)C", "note": "[Material 524]", "values": [{"measurement": "BI", "setting": "[4]", "result": 2.8}]}, {"smiles": "CCC(O)COC1CCCCC1C(C)(C)C", "note": "(stereo not shown) [Material 677]", "values": [{"measurement": "BI", "setting": "[3]", "result": 2.3}, {"measurement": "BI", "setting": "[4]", "result": 2.0}]}, {"smiles": "CC(CCO)CCc1ccccc1", "note": "(stereo not shown) [Material 962]", "values": [{"measurement": "BI", "setting": "[3]", "result": 2.3}, {"measurement": "BI", "setting": "[4]", "result": 1.7}]}, {"smiles": "CCOC(=O)OC1C(C)CCC(C)C1C", "note": "(stereo not shown) [Material 1005]", "values": [{"measurement": "BI", "setting": "[4]", "result": 2.6}]}, {"smiles": "COC(=O)OC1CC/C=C\\CCC1", "note": "(stereo not shown) [Material 1139]", "values": [{"measurement": "BI", "setting": "[3]", "result": 2.0}, {"measurement": "BI", "setting": "[4]", "result": 2.7}]}, {"smiles": "C=C1CCC2OC2(C)CCC2C1CC2(C)C", "note": "(stereo not shown) [Material 1148]", "values": [{"measurement": "BI", "setting": "[4]", "result": 2.3}]}, {"smiles": "CC1(C)C2CCC3(C2)C1C(=O)CCC3(C)C", "note": "(stereo not shown) [Material 1149]", "values": [{"measurement": "BI", "setting": "[3]", "result": 1.5}, {"measurement": "BI", "setting": "[4]", "result": 2.3}]}, {"smiles": "CCCCCCCCCCCO", "note": "[Undecanol]", "values": [{"measurement": "BI", "setting": "[4]", "result": 2.3}]}]}
